# Laboratory results as given in PubChem BioAssay AID1259408 (Genetic Toxicology Data Bank (GENE-TOX), 2018).
# Active and inactive are the calls of the source. The rule behind the calls is not given here.
# Tested on: GENE-TOX genotoxicity assays, various organisms and cells
# Experiment: GENE-TOX mutagenicity studies
# Conditions: for call: Assay Type: In vivo carcinogenicity studies
# [1] = Species/Cell Type: Drosophila melanogaster, Assay Type: Sex-linked recessive lethal gene mutation, Assay Code: SRL+, Evaluation Type: Evaluation A (Pre-1980)
# [2] = Species/Cell Type: Saccharomyces cerevisiae, Assay Type: Mitotic recombination or gene conversion, Assay Code: YEC+, Evaluation Type: Evaluation A (Pre-1980)
smiles,measurement,setting,value
COc1cc2c(c3oc(=O)c4c(c13)CCC4=O)[C@@H]1C=CO[C@@H]1O2,mutagenic call,"Species/Cell Type: Bacillus subtilis (H17 vs M45), Assay Type: Rec-assay, spot test, DNA effects (bacterial DNA repair), Assay Code: REW+, Evaluation Type: Evaluation A (Pre-1980)",active; positive
same,mutagenic call,"Species/Cell Type: Chinese hamster lung (V79) cells, Assay Type: Forward gene mutation at the HPRT or ouabain locus, Assay Code: V79+, Evaluation Type: Evaluation A (Pre-1980)",active; positive
same,mutagenic call,[1],active; positive
same,mutagenic call,"Species/Cell Type: Escherichia coli polA (W3119 vs P3478), Assay Type: Rec-assay, DNA effects (bacterial DNA repair), Assay Code: RE1+, Evaluation Type: Evaluation A (Pre-1980)",active; positive
same,mutagenic call,"Species/Cell Type: Human diploid fibroblasts, Assay Type: Unscheduled DNA synthesis (UDS) in vitro, DNA effects, Assay Code: UDH+D*, Activation: With metabolic activation, Dose Response: With dose response, Evaluation Type: Evaluation A (Pre-1980)",active; positive
same,mutagenic call,"Species/Cell Type: Human lymphocytes, Assay Type: Sister-chromatid exchange (SCE) in vitro, Assay Code: SCL+D, Dose Response: With dose response, Evaluation Type: Evaluation A (Pre-1980)",active; positive
same,mutagenic call,"Species/Cell Type: Human lymphocytes, Assay Type: Sister-chromatid exchange (SCE) in vitro, Assay Code: SCL+D, Dose Response: With dose response, Evaluation Type: Evaluation B (Post-1980)",active; positive
same,mutagenic call,"Species/Cell Type: Human, Assay Type: Sister-chromatid exchange (SCE) in vitro, Assay Code: SC1+D, Dose Response: With dose response, Evaluation Type: Evaluation A (Pre-1980)",active; positive
same,mutagenic call,"Species/Cell Type: Human, Assay Type: Sister-chromatid exchange (SCE) in vitro, Assay Code: SC1+D, Dose Response: With dose response, Evaluation Type: Evaluation B (Post-1980)",active; positive
same,mutagenic call,"Species/Cell Type: Mammalian germ cells, Sex: Male, Assay Type: Chromosome aberrations in vivo, Assay Code: CY9T, Evaluation Type: Evaluation A (Pre-1980)",no conclusion
same,mutagenic call,"Species/Cell Type: Mammalian polychromatic erythrocytes, Assay Type: Micronucleus test, chromosome aberrations, Assay Code: MNT+, Evaluation Type: Evaluation A (Pre-1980)",active; positive
same,mutagenic call,"Species/Cell Type: Mouse, Sex: Male, Assay Type: Sperm morphology, Assay Code: SPI-, Evaluation Type: Evaluation A (Pre-1980)",inactive; negative
same,mutagenic call,"Species/Cell Type: Neurospora crassa, Assay Type: Forward gene mutation, Assay Code: NEF+, Evaluation Type: Evaluation A (Pre-1980)",active; positive
same,mutagenic call,"Species/Cell Type: Nonhuman, Assay Type: Chromosome aberrations in vitro, Assay Code: CY&+, Evaluation Type: Evaluation A (Pre-1980)",active; positive
same,call,"Species/Cell Type: Nonhuman, Assay Code: CCG+, Evaluation Type: Evaluation A (Pre-1980)",active; positive
same,mutagenic call,"Species/Cell Type: Nonhuman, Assay Type: Sister-chromatid exchange (SCE) in vitro, Assay Code: SC2+D, Dose Response: With dose response, Evaluation Type: Evaluation A (Pre-1980)",active; positive
same,mutagenic call,"Species/Cell Type: Nonhuman, Assay Type: Sister-chromatid exchange (SCE) in vitro, Assay Code: SC2+D, Dose Response: With dose response, Evaluation Type: Evaluation B (Post-1980)",active; positive
same,mutagenic call,"Species/Cell Type: Nonhuman, Assay Type: Sister-chromatid exchange (SCE) in vivo, Assay Code: SC3+, Evaluation Type: Evaluation A (Pre-1980)",active; positive
same,mutagenic call,"Species/Cell Type: Nonhuman, Assay Type: Sister-chromatid exchange (SCE) in vivo, Assay Code: SC3+, Evaluation Type: Evaluation B (Post-1980)",active; positive
same,mutagenic call,"Species/Cell Type: Rat primary hepatocytes, Assay Type: Unscheduled DNA synthesis (UDS) in vitro, DNA effects, Assay Code: UDP+, Evaluation Type: Evaluation A (Pre-1980)",active; positive
same,mutagenic call,"Species/Cell Type: Rat, Sex: Male, Assay Type: Sperm morphology, Assay Code: SPA-, Evaluation Type: Evaluation A (Pre-1980)",inactive; negative
same,mutagenic call,[2],active; positive
same,mutagenic call,"Species/Cell Type: Saccharomyces cerevisiae, Assay Type: Mitotic recombination or gene conversion, Assay Code: YEH+, Evaluation Type: Evaluation A (Pre-1980)",active; positive
same,mutagenic call,"Species/Cell Type: Salmonella typhimurium (one or more of the five standard strains: TA98, TA100, TA1535, TA1537, and TA1538), Assay Type: Histidine reverse gene mutation, Ames assay, Assay Code: SAL+, Evaluation Type: Evaluation A (Pre-1980)",active; positive
same,mutagenic call,"Species/Cell Type: Salmonella typhimurium, Assay Type: Forward and reverse gene mutation, body fluid assay, Assay Code: BFU+, Evaluation Type: Evaluation A (Pre-1980)",active; positive
same,mutagenic call,"Species/Cell Type: Salmonella typhimurium, Assay Type: Forward and reverse gene mutation, host-mediated assay, Assay Code: HMA+, Evaluation Type: Evaluation A (Pre-1980)",active; positive
same,mutagenic call,"Species/Cell Type: Syrian hamster embryo (SA7/SHE) cells, Assay Type: Cell transformation, viral enhanced, Assay Code: CT7+, Evaluation Type: Evaluation A (Pre-1980)",active; positive
same,mutagenic call,"Species/Cell Type: Syrian hamster embryo (SHE) cells, Assay Type: Cell transformation, clonal assay, Assay Code: CTC+D, Dose Response: With dose response, Evaluation Type: Evaluation A (Pre-1980)",active; positive
same,mutagenic call,"Species/Cell Type: Syrian hamster embryo (SHE) cells, Assay Type: Cell transformation, focus assay, Assay Code: CTF+, Evaluation Type: Evaluation A (Pre-1980)",active; positive
Nc1ccc(O)c([N+](=O)[O-])c1,mutagenic call,"Species/Cell Type: Fischer rat embryo (RLV/1706) cells, Assay Type: Cell transformation, viral enhanced, Assay Code: CTR+, Evaluation Type: Evaluation A (Pre-1980)",active; positive
same,call,"Species/Cell Type: Nonhuman, Assay Code: CCG+L, Evaluation Type: Evaluation A (Pre-1980)",active; positive
same,mutagenic call,"Species/Cell Type: Rodents, Sex: Male, Assay Type: Dominant lethal test, Assay Code: DLT-, Evaluation Type: Evaluation A (Pre-1980)",inactive; negative
CCOC(=O)c1ccc(N=NN(C)C)cc1,mutagenic call,[1],active; positive
same,mutagenic call,[2],active; positive
